Measured values taken from patent publication US7723068B2, “Gene cluster involved in safracin biosynthesis and its uses for genetic engineering” (PharmaMar, S.A., priority 2002, dated 2010).
pIC50: −log10 of the molar value.

Columns and labels:
DNA synthesis = assay: Secondary Screening, Macromolecules Synthesis DNA; format: cell-based; conditions: Secondary Evaluation
[1] = Antibacterial and antitumoral activities, general statements; conditions: compared with safracin A / safracin B
IGROV-ET [2] = conditions: Ovary
SK-BR3 [3] = assay: cells; conditions: Homo sapiens; for GI50: SK-BR-3, read-out: GI50 SK-BR3; for CC50: SK-BR-3, read-out: LC50 SK-BR3
LN-caP [4] = conditions: Prostate
LOVO [5] = assay: cells; conditions: Homo sapiens; for GI50: read-out: GI50 LOVO; for CC50: read-out: LC50 LOVO
SK-BR3 [6] = conditions: Breast
PANC1 [7] = conditions: Pancreas
PANC1 [8] = assay: cells; conditions: Homo sapiens; for GI50: PANC-1, read-out: GI50 PANC1; for CC50: PANC-1, read-out: LC50 PANC1
SK-MEL-28 [9] = assay: cells; conditions: Homo sapiens; for GI50: SK-MEL-28, read-out: GI50 SK-MEL-28; for CC50: SK-MEL-28, read-out: LC50 SK-MEL-28
LOVO [10] = conditions: Colon
DU-145 [11] = assay: cells; conditions: Homo sapiens; for GI50: DU-145, read-out: GI50 DU-145; for CC50: DU-145, read-out: LC50 DU-145
PROTEIN synthesis = assay: Secondary Screening, Macromolecules Synthesis PROTEIN; format: cell-based; conditions: Secondary Evaluation
K-562 [12] = conditions: Leukemia
LOVO-DOX [13] = assay: cells; conditions: for GI50: read-out: GI50 LOVO-DOX; for CC50: read-out: LC50 LOVO-DOX
Bacillus subtilis = assay: Antimicrobial activity on solid medium, disk; format: cell-based; conditions: Bacillus subtilis, 10 μg/disk (6 mm diameter)
Method: Antimicrobial activity: On solid medium Bacillus subtilis. 10 μg/disk (6 mm diameter): 10 mm inhibition zone Spectroscopic Data: […]

IGROV [14] = assay: cells; conditions: for GI50: read-out: GI50 IGROV; for CC50: read-out: LC50 IGROV
DNA = assay: Secondary Screening, DNA Binding GEL; conditions: Secondary Evaluation
HELA-APL [15] = conditions: Cervix
IGROV [16] = conditions: Ovary
HELA [17] = conditions: Cervix
HT29 [18] = conditions: Colon
A549 [19] = assay: cells; conditions: Homo sapiens; for GI50: A549, read-out: GI50 A549; for CC50: A549, read-out: LC50 A549
DU-145 [20] = conditions: Prostate
HELA [21] = assay: cells; conditions: Homo sapiens; for GI50: read-out: GI50 HELA; for CC50: read-out: LC50 HELA
IGROV-ET [22] = assay: cells; conditions: for GI50: read-out: GI50 IGROV-ET; for CC50: read-out: LC50 IGROV-ET
Apoptosis (NUCLEOSOMES) = assay: Secondary Screening, Apoptosis NUCLEOSOMES; format: cell-based; conditions: Secondary Evaluation
HELA-APL [23] = assay: cells; conditions: for GI50: read-out: GI50 HELA-APL; for CC50: read-out: LC50 HELA-APL
HT29 [24] = assay: cells; conditions: Homo sapiens; for GI50: HT-29, read-out: GI50 HT29; for CC50: HT-29, read-out: LC50 HT29
K-562 [25] = assay: cells; conditions: Homo sapiens; for GI50: K562, read-out: GI50 K-562; for CC50: K562, read-out: LC50 K-562
A549 [26] = conditions: NSCL
RNA synthesis = assay: Secondary Screening, Macromolecules Synthesis RNA; format: cell-based; conditions: Secondary Evaluation
LOVO-DOX [27] = conditions: Colon
LN-caP [28] = assay: cells; conditions: Homo sapiens, LNCaP; for GI50: read-out: GI50 LN-caP; for CC50: read-out: LC50 LN-caP
SK-MEL-28 [29] = conditions: Melanoma

COC1=C(C)C(=O)C2=C(C1=O)C(CNC(=O)C(C)N)N1C(O)C3Cc4cc(C)c(OC)c(O)c4C(N3)C1C2 (centres unmarked) [Safracin D]
pIC50 (DNA synthesis): 4.82 | antibacterial and antitumoral activities (in words) [1]: the same antibacterial and antitumoral activities as safracin B and safracin A, respectively | TGI IGROV-ET (IGROV-ET [2]): 3.34 µM | GI50 (SK-BR3 [3]): 4.71 µM | CC50 (SK-BR3 [3]): 13 µM | TGI LN-caP (LN-caP [4]): 4.12 µM | GI50 (LOVO [5]): 6.99 µM | CC50 (LOVO [5]): > 19 µM | TGI SK-BR3 (SK-BR3 [6]): 7.82 µM | TGI PANC1 (PANC1 [7]): 11 µM | GI50 (PANC1 [8]): 4.77 µM | CC50 (PANC1 [8]): > 19 µM | GI50 (SK-MEL-28 [9]): 3.51 µM | CC50 (SK-MEL-28 [9]): 11 µM | TGI LOVO (LOVO [10]): 18.2 µM | GI50 (DU-145 [11]): 5.22 µM | CC50 (DU-145 [11]): 19 µM | pIC50 (PROTEIN synthesis): 4.72 | TGI K-562 (K-562 [12]): 1.16 µM | GI50 (LOVO-DOX [13]): 4.75 µM | CC50 (LOVO-DOX [13]): 16.5 µM | zone of inhibition at 10 µg/disc (Bacillus subtilis): 15 mm | GI50 (IGROV [14]): 2.68 µM | CC50 (IGROV [14]): 13.5 µM | pIC50 (DNA): 5.18 | TGI HELA-APL (HELA-APL [15]): 5.24 µM | TGI IGROV (IGROV [16]): 6.02 µM | TGI HELA (HELA [17]): 6.68 µM | TGI HT29 (HT29 [18]): 17.9 µM | GI50 (A549 [19]): 6.04 µM | CC50 (A549 [19]): 18.8 µM | TGI DU-145 (DU-145 [20]): 9.99 µM | GI50 (HELA [21]): 3.76 µM | CC50 (HELA [21]): 11.9 µM | GI50 (IGROV-ET [22]): 1.33 µM | CC50 (IGROV-ET [22]): 9.15 µM | pIC50 (Apoptosis (NUCLEOSOMES)): 5.55 | GI50 (HELA-APL [23]): 2.28 µM | CC50 (HELA-APL [23]): 12.1 µM | GI50 (HT29 [24]): 4.33 µM | CC50 (HT29 [24]): > 19 µM | GI50 (K-562 [25]): 0.604 µM | CC50 (K-562 [25]): 3.78 µM | TGI A549 (A549 [26]): 10.7 µM | pIC50 (RNA synthesis): 5.42 | TGI LOVO-DOX (LOVO-DOX [27]): 8.85 µM | GI50 (LN-caP [28]): 1.54 µM | CC50 (LN-caP [28]): 9.78 µM | TGI SK-MEL-28 (SK-MEL-28 [29]): 6.21 µM

CCOC1=C(C)C(=O)C2=C(C1=O)C(CNC(=O)C(C)N)N1C(O)C3Cc4cc(C)c(OCC)c(O)c4C(C1C2)N3C (centres unmarked) [Safracin B (OEt)]
pIC50 (DNA synthesis): 5.75 | antibacterial and antitumoral activities (in words) [1]: as potent as the activities of safracin A and safracin B, respectively | TGI IGROV-ET (IGROV-ET [2]): 1.19 µM | GI50 (SK-BR3 [3]): 0.0482 µM | CC50 (SK-BR3 [3]): 1.02 µM | TGI LN-caP (LN-caP [4]): >17.6 µM | GI50 (LOVO [5]): 0.443 µM | CC50 (LOVO [5]): > 17.6 µM | TGI SK-BR3 (SK-BR3 [6]): 0.116 µM | TGI PANC1 (PANC1 [7]): 2.06 µM | GI50 (PANC1 [8]): 0.649 µM | CC50 (PANC1 [8]): 13.5 µM | GI50 (SK-MEL-28 [9]): 0.169 µM | CC50 (SK-MEL-28 [9]): 1.13 µM | TGI LOVO (LOVO [10]): 1.09 µM | GI50 (DU-145 [11]): 0.401 µM | CC50 (DU-145 [11]): 16 µM | pIC50 (PROTEIN synthesis): < 4.75 | TGI K-562 (K-562 [12]): 0.108 µM | GI50 (LOVO-DOX [13]): 2.09 µM | CC50 (LOVO-DOX [13]): > 17.6 µM | zone of inhibition at 10 µg/disc (Bacillus subtilis): 17.5 mm | GI50 (IGROV [14]): 0.0406 µM | CC50 (IGROV [14]): 4.27 µM | pIC50 (DNA): 4.75 | TGI HELA-APL (HELA-APL [15]): 0.274 µM | TGI IGROV (IGROV [16]): 0.0997 µM | TGI HELA (HELA [17]): 0.315 µM | TGI HT29 (HT29 [18]): 1.39 µM | GI50 (A549 [19]): 0.501 µM | CC50 (A549 [19]): 5.66 µM | TGI DU-145 (DU-145 [20]): 1.01 µM | GI50 (HELA [21]): 0.0892 µM | CC50 (HELA [21]): 1.35 µM | GI50 (IGROV-ET [22]): 0.682 µM | CC50 (IGROV-ET [22]): 6.37 µM | pIC50 (Apoptosis (NUCLEOSOMES)): 7.28 | GI50 (HELA-APL [23]): 0.077 µM | CC50 (HELA-APL [23]): 0.976 µM | GI50 (HT29 [24]): 0.244 µM | CC50 (HT29 [24]): > 17.6 µM | GI50 (K-562 [25]): 0.0397 µM | CC50 (K-562 [25]): 3.69 µM | TGI A549 (A549 [26]): 1.16 µM | pIC50 (RNA synthesis): 6.75 | TGI LOVO-DOX (LOVO-DOX [27]): 9.88 µM | GI50 (LN-caP [28]): 0.0484 µM | CC50 (LN-caP [28]): 0.828 µM | TGI SK-MEL-28 (SK-MEL-28 [29]): 0.44 µM
